Measured values: US20220378707A1, “1-(((2S,3S,4S)-3-ETHYL-4-FLUORO-5-OXOPYRROLIDIN-2-YL)METHOXY)-7-METHOXYISOQUINOLINE-6-CARBOXAMIDE COMBINATIONS AND ORAL DOSAGE FORMS” (Pfizer Inc., priority 2019, published 2022)
“Also recorded” adds a separate entry of the source.

What was measured:
Format in all cases: cell-based, human
[1] = system: CD19+B cells and PBMC+(α-IgM and TCR ligands); experiment: BioMAP BT system; conditions: for Inhibition of biomarker readouts in the BT system / Increased biomarker readouts in the BT system: T cell dependent B cell activation; for Inhibition of biomarker readouts in the BT system: concentrations of FIGS. 12-14; for Increased biomarker readouts in the BT system: tofacitinib 37-1000 nM
Text: (§1) The BioMAP systems consist of human primary cell-based systems designed to model different aspects of the human body in an in vitro format. The 12 systems tested characterized the test compounds across a broad set of systems modeling various human disease states. BioMAP systems were constructed with one or more primary cell types from healthy human donors, with stimuli (such as cytokines or growth factors) added to capture relevant signaling networks that naturally occur in human tissue or pathological conditions. Vascular biology was modeled in both a Th1 (3C system) and a Th2 (4H system) inflammatory environment, as well as in a Th1 inflammatory state specific to arterial smooth muscle cells (CASM3C system). Additional systems recapitulated aspects of the systemic immune response that included monocyte-driven Th1 inflammation (LPS system) or T cell stimulation (SAg system), chronic Th1 inflammation driven by macrophage activation (IMphg system) and the T cell-dependent activation of B cells that occurs in germinal centers (BT system). The BE3C system (Th1) and the BF4T system (Th2) represented airway inflammation of the lung, while the MyoF system modeled myofibroblast-lung tissue remodeling. Lastly, skin biology was addressed in the KF3CT system modeled Th1 cutaneous inflammation and the HDF3CGF system modeled wound healing.
(§2) All cells were from a pool of multiple donors (n=2-6), commercially purchased and handled according to the recommendations of the manufacturers. Human blood derived CD14+ monocytes were differentiated into macrophages in vitro before being added to the IMphg system. Abbreviations were used as follows: human umbilical vein endothelial cells (HUVEC), peripheral blood mononuclear cells (PBMC), human neonatal dermal fibroblasts (HDFn), B cell receptor (BCR), T cell receptor (TCR) and toll-like receptor (TLR). Cell types and stimuli used in each system were as follows:
(§3) 3C system [HUVEC+(IL-1β, TNFα and IFNγ)]; 4H system [HUVEC+(IL-4 and histamine)]; LPS system [PBMC and HUVEC+LPS (TLR4 ligand)]; SAg system [PBMC and HUVEC+T cell receptor (TCR) ligands]; BT system [CD19+B cells and PBMC+(α-IgM and TCR ligands)]; BF4T system [bronchial epithelial cells and HDFn+(TNFα and IL-4)]; BE3C system [bronchial epithelial cells+(IL-1p, TNFα and IFNγ)]; CASM3C system [coronary artery smooth muscle cells+(IL-1p, TNFα and IFNγ)]; HDF3CGF system [HDFn+(IL-1β, TNFα, IFNγ, EGF, bFGF and PDGF-BB)]; KF3CT system [keratinocytes and HDFn+(IL-1β, TNFα and IFNγ)]; MyoF system [differentiated lung myofibroblasts+(TNFα and TGFβ)]; and IMphg system [HUVEC and M1 macrophages+Zymosan (TLR2 ligand)].
Systems were derived from either single cell types or co-culture systems. Adherent cell types were cultured in 96 or 384-well plates until confluence, followed by the addition of PBMC (SAg and LPS systems). The BT system consisted of CD19+B cells co-cultured with PBMC and stimulated with a BCR activator and low levels of TCR stimulation. Test agents were prepared in DMSO (final concentration <0.1%) and were added 1 hour before stimulation, and remained in culture for 24 hours or as otherwise indicated (48-hrs, MyoF system; 72-hrs, BT system (soluble readouts); 168-hrs, BT system (secreted IgG)). Each plate contained drug controls (e.g., legacy control test agent colchicine at 1.1 μM), negative controls (e.g., non-stimulated conditions) and vehicle controls (e.g., 0.1% DMSO) appropriate for each system. Direct ELISA was used to measure biomarker levels of cell-associated and cell membrane targets. Soluble factors from supernatants were quantified using either HTRF® detection, bead-based multiplex immunoassay or capture ELISA. Overt adverse effects of test agents on cell proliferation and viability (cytotoxicity) were detected by sulforhodamine B (SRB) staining, for adherent cells, and alamarBlue® reduction for cells in suspension. […]

[2] = system: PBMC and HUVEC+T cell receptor (TCR) ligands; experiment: BioMAP SAg system; conditions: for Inhibition of biomarker readouts in the SAg system: T cell-driven Th1 vascular inflammation, concentrations of FIGS. 12-16
Text: as §1, §2, §3
Systems were derived from either single cell types or co-culture systems. Adherent cell types were cultured in 96 or 384-well plates until confluence, followed by the addition of PBMC (SAg and LPS systems). The BT system consisted of CD19+B cells co-cultured with PBMC and stimulated with a BCR activator and low levels of TCR stimulation. Test agents were prepared in DMSO (final concentration <0.1%) and were added 1 hour before stimulation, and remained in culture for 24 hours or as otherwise indicated (48-hrs, MyoF system; 72-hrs, BT system (soluble readouts); 168-hrs, BT system (secreted IgG)). Each plate contained drug controls (e.g., legacy control test agent colchicine at 1.1 μM), negative controls (e.g., non-stimulated conditions) and vehicle controls (e.g., 0.1% DMSO) appropriate for each system. Direct ELISA was used to measure biomarker levels of cell-associated and cell membrane targets. Soluble factors from supernatants were quantified using either HTRF® detection, bead-based multiplex immunoassay or capture ELISA. Overt adverse effects of test agents on cell proliferation and viability (cytotoxicity) were detected by sulforhodamine B (SRB) staining, for adherent cells, and alamarBlue® reduction for cells in suspension.

[3] = system: HDFn+(IL-1β, TNFα, IFNγ, EGF, bFGF and PDGF-BB); experiment: BioMAP HDF3CGF system; conditions: for Inhibition of biomarker readouts in the HDF3CGF system: wound healing, Th1-type inflammation, concentrations of FIGS. 12-16
Text: as §1, §2, §3
(§4) Systems were derived from either single cell types or co-culture systems. Adherent cell types were cultured in 96 or 384-well plates until confluence, followed by the addition of PBMC (SAg and LPS systems). […] Test agents were prepared in DMSO (final concentration <0.1%) and were added 1 hour before stimulation, and remained in culture for 24 hours or as otherwise indicated (48-hrs, MyoF system; 72-hrs, BT system (soluble readouts); 168-hrs, BT system (secreted IgG)). […] Soluble factors from supernatants were quantified using either HTRF® detection, bead-based multiplex immunoassay or capture ELISA. Overt adverse effects of test agents on cell proliferation and viability (cytotoxicity) were detected by sulforhodamine B (SRB) staining, for adherent cells, and alamarBlue® reduction for cells in suspension.

[4] = system: HUVEC+(IL-1β, TNFα and IFNγ); experiment: BioMAP 3C system; conditions: agent alone; PF-06650833 19, 56, 170, 500 nM; tofacitinib 37, 110, 330, 1000 nM
Text: (§5) The BioMAP systems consist of human primary cell-based systems designed to model different aspects of the human body in an in vitro format. The 12 systems tested characterized the test compounds across a broad set of systems modeling various human disease states. BioMAP systems were constructed with one or more primary cell types from healthy human donors, with stimuli (such as cytokines or growth factors) added to capture relevant signaling networks that naturally occur in human tissue or pathological conditions. Vascular biology was modeled in both a Th1 (3C system) and a Th2 (4H system) inflammatory environment, as well as in a Th1 inflammatory state specific to arterial smooth muscle cells (CASM3C system). […]
as §4, with “systems.” for “systems. Adherent cell types were cultured in 96 or 384-well plates until confluence, followed by the addition of PBMC (SAg and LPS systems).”

[5] = system: HUVEC+(IL-4 and histamine); experiment: BioMAP 4H system; conditions: Th2 vascular inflammation, tofacitinib 37-1000 nM
Text: as §5
as §4, with “systems.” for “systems. Adherent cell types were cultured in 96 or 384-well plates until confluence, followed by the addition of PBMC (SAg and LPS systems).”

[6] = system: bronchial epithelial cells and HDFn+(TNFα and IL-4); experiment: BioMAP BF4T system; conditions: Th2 airway inflammation; tofacitinib 37-1000 nM
Text: as §5
as §4, with “systems.” for “systems. Adherent cell types were cultured in 96 or 384-well plates until confluence, followed by the addition of PBMC (SAg and LPS systems).”

Structure (SMILES) | Inhibition of biomarker readouts in the BT system ([1]; listed as 1-(((2S,3S,4S)-3-Ethyl-4-fluoro-5-oxopyrrolidin-2-yl)methoxy)-7-methoxyisoquinol) | Inhibition of biomarker readouts in the BT system ([1]; listed as 1-(((2S,3S,4S)-3-ethyl-4-fluoro-5-oxopyrrolidin-2-yl)methoxy)-7-methoxyisoquinol) | Inhibition of biomarker readouts in the SAg system [2] | MIG, Log10 molar ratio in the HDF3CGF system ([3]; PF-06650833 at 170 nM alone) | Inhibition of biomarker readouts in the HDF3CGF system [3] | Activity in the 3C system [4] | Inhibition of biomarker readouts in the BT system [1] | Inhibition of biomarker readouts in the BT system ([1]; listed as Tofacitinib) | Increased biomarker readouts in the BT system [1] | Increased biomarker readouts in the BT system ([1]; listed as Tofacitinib) | B cell proliferation in the BT system ([1]; concentrations of FIGS. 13-14) | Inhibition of biomarker readouts in the 4H system [5] | Inhibition of biomarker readouts in the 4H system ([5]; listed as Tofacitinib) | Inhibition of biomarker readouts in the SAg system ([2]; listed as Tofacitinib) | Proliferation of T cells in the SAg system ([2]; concentrations of FIGS. 13-14) | Increased biomarker readouts in the BF4T system [6] | Inhibition of biomarker readouts in the BF4T system [6] | Inhibition of biomarker readouts in the HDF3CGF system ([3]; listed as Tofacitinib)
CC[C@@H]1[C@H](F)C(=O)N[C@@H]1COc1nccc2cc(C(N)=O)c(OC)cc12 [PF-06650833, 1-(((2S,3S,4S)-3-Ethyl-4-fluoro-5-oxopyrrolidin-2-yl)methoxy)-7-methoxyisoquinoline-6-carboxamide] | little effect; also recorded: modest inhibition of IL-6 and sIL-17F | sIL-17F and sTNFα | no activity | −0.04121 | modest inhibition VCAM-1, Col-III, and TIMP2 | no activity |  |  |  |  |  |  |  |  |  |  |  | 
C[C@@H]1CCN(C(=O)CC#N)C[C@@H]1N(C)c1ncnc2[nH]ccc12 [tofacitinib, 3-((3R,4R)-4-Methyl-3-(methyl(7H-pyrrolo[2,3-d]pyrimidin-4-yl)amino)piperidin-1-yl)-3-oxopropanenitrile] |  |  | CD38 and CD69 and modestly inhibited CD69 |  | ITAC and VCAM-1 | no activity | sIgG, sIL-17F, sIL-2, IL-6, and sTNFα; also recorded: strongly inhibited responses | active over all tested concentrations; also recorded: sIgG, sIL-17F, sIL-6, and sTNFα | increase in secreted IL-2 | sIL-2 | B cell anti-proliferative activity | MCP-1 and Eto3 and VCAM-1 and P-selectin | active over all tested concentrations; also recorded: MCP-1, Eot3, VCAM-1, P-selectin | CD38 and CD69 | antiproliferative activity | MMP9 | active over all tested concentrations; also recorded: Eot3, and VCAM-1 | VCAM-1 and ITAC
